This passage reports Activity observed %, Leaf attack % and inhibition results from patent US20090023687A1, “Method for Controlling Phytopathogenic Organisms” (SYNGENTA CROP PROTECTION, INC., priority 2005, published 2009).

Common to all, as to assay type: in vivo
Assay [1] deals with Phakopsora pachyrhizi. Kind of assay: Leaf disc test with Phakopsora pachyrhizi on glyphosate sensitive soybean, leaf disks treated (Example 4). The source says:
(§1) A synergistic effect exists whenever the action of an active ingredient combination is greater than the action expected from the effect of the individual components.
(§2) The action to be expected (E) for a given active ingredient combination obeys the so-called COLBY formula and can be calculated as follows (COLBY, S. R. “Calculating synergistic and antagonistic responses of herbicide combination”. Weeds, Vol. 15, pages 20-22; 1967):
(§3) ppm=milligrams of active ingredient (=a.i.) per litre of spray mixture X=% action by active ingredient I using p ppm of active ingredient Y=% action by active ingredient II using q ppm of active ingredient.
(§4) According to Colby, the expected (additive) action of active ingredients I+II using p+q ppm of active ingredient is
(§5) If the action actually observed (O) is greater than the expected action (E), then the action of the combination is superadditive, i.e. there is a synergistic effect.
(§6) A series of leaf disc tests were conducted to show the effects of tank mixtures of glyphosate and pesticides or plant activators on Asian soybean rust. The soybean variety tested was brand Williams82 glyphosate sensitive soybean. The leaf source for the testing was the first trifoliate leaf. Six (6) repetitions for each formulation and at each rate were conducted. Treatment of the leaf disks with the recited active ingredients was conducted 4 weeks after planting. The leaves were inoculated with Phakopsora pachyrhizi (Asian soybean rust (ASR)) one (1) day after treatment. Evaluation of the leaf was conducted ten (10) days after inoculation and the mean percent infestation of the six repetitions is reported in Tables 8-11.
As glyphosate source Touchdown® HiTech or Zapp® QI was used. The fungicides were used as commercial formulations: Bion® WG50 plant activator comprising acibenzolar-S-methyl (Syngenta Corp.), Opus® SC125 fungicide comprising epoxiconazole commercially (BASF AG), Tilt® EC250 fungicide comprising propiconazole (Syngenta Corp.), Quadris® SC250 fungicide comprising azoxystrobin (Syngenta Corp.). The rates of the active ingredients used in the tests are set in Tables 8-11 as mg active ingredient (a.i.)/L.

The subject of the next assay is Puccinia recondita. Kind of assay: Greenhouse trial with Puccinia recondita on glyphosate sensitive wheat (Example 3). The note with it: read-out: % activity observed.
Excerpt: as §1, §2, §3, §4, §5
Greenhouse tests were conducted to show the effects of tank mixtures of glyphosate and the ortho-substituted phenyl-amide (OPA) fungicides represented by structures F-10, F-5 and F-9 on cereal rust Puccinia recondita. The wheat variety tested was brand Kanzler glyphosate sensitive wheat. Three (3) repetitions for each formulation and at each rate were conducted. Treatment of the plants with the recited active ingredients was conducted preventatively 16 days after planting. The leaves were inoculated with Puccinia recondita one (1) day after treatment. Evaluation of the leaf was conducted […] after inoculation and the mean percent infestation of the three repetitions is reported in Tables 5-7.
(§7) The glyphosate source was Zapp® QI herbicide containing the potassium salt of glyphosate as well as an adjuvant system. The compound OPA F-5 used was a compound of formula F-5, wherein the ratio of racemic compounds of formula F-3 (syn) to racemic compounds of formula F-4 (anti) was 9:1. The compound OPA F-9 used was a compound of formula F-9, wherein the ratio of racemic compounds of formula F-7 (trans) to racemic compounds of formula F-8 (cis) was around 100:1. The fungicides used were EC 100 formulations of OPA F-10, OPA F-5 and OPA F-9 which are emulsion concentrates containing 100 ga.i./L. The rates of the active ingredients used in the tests are set in Tables 5-7 as mg active ingredient (a.i.)/L.

In assay [2] the test system is Phakopsora pachyrhizi. Briefly: whole plant or invertebrate. The note with it: in Glycine max, foliar, read-out: % activity observed.
Excerpt: as §1, §2, §3, §4, §5
as §6, with “the ortho-substituted phenyl-amide (OPA) fungicides represented by structures F-5 and F-9” for “pesticides or plant activators”, “leaf” for “leaf disks”, “3 and 4.” for “8-11.”
as §7, with “Touchdown® HiTech” for “Zapp® QI”, “herbicide (Syngenta Corp.),” for “herbicide”, “and no” for “as well as an”, “EC100” for “EC 100”, “of” for “of OPA F-10,”, “the table” for “Tables 5-7”

Assay [3] relates to Phakopsora pachyrhizi. Kind of assay: Application on whole plants: leaf disc test with Phakopsora pachyrhizi on glyphosate sensitive soybean (Example 5).
Excerpt: as §1, §2, §3, §4, §5
(§8) A series of leaf disc tests were conducted to show the effects of tank mixtures of glyphosate and pesticides or plant activators on Asian soybean rust. The soybean variety tested was brand Williams82 glyphosate sensitive soybean. The leaf source for the testing was the first trifoliate leaf. Six (6) repetitions for each formulation and at each rate were conducted. Treatment of whole plants with the recited active ingredients was conducted 4 weeks after planting. After application, leaf disks were cut and inoculated with Phakopsora pachyrhizi (Asian soybean rust (ASR)) one (1) day after treatment. Evaluation of the leaf was conducted ten (10) days after inoculation and the mean percent infestation of the six repetitions is reported in Tables 12-14.
As glyphosate source Touchdown® HiTech or Zapp® QI was used. The fungicides were used as commercial formulations: Cantus® WG50 fungicide comprising boscalid (BASF AG), Quadris® SC250 fungicide and Bion® WG50 plant activator comprising acibenzolar-S-methyl. The rates of the active ingredients used in the tests are set in Tables 12-14 as g active ingredient (a.i.)/hectare (ha). The spray volume was 200 l/ha.

In assay [4] the test system is Phakopsora pachyrhizi. Kind of assay: Application on whole plants: leaf disc test with Phakopsora pachyrhizi on glyphosate tolerant soybean (Example 6).
Excerpt: as §1, §2, §3, §4, §5
as §8, with “Leaf” for “A series of leaf”, “S40-R9” for “Williams82”, “tolerant” for “sensitive”, “[…]” for “of whole plants with the recited active ingredients was conducted 4 weeks after planting. After”, “15-17.” for “12-14.”
As glyphosate source Touchdown® HiTech or Zapp® QI was used. The fungicides were used as commercial formulations: Bravo® SC500 fungicide comprising chlorothalonil (Syngenta Corp.), Score® EC250 fungicide comprising difenaconazole (Syngenta Corp.) and Mancozeb 80WP fungicide comprising mancozeb. The rates of the active ingredients used in the tests are set in Tables 15-17 as g active ingredient (a.i.)/hectare (ha). The spray volume was 200 l/ha.

[5] abbreviates: Epoxiconazole Opus SC125 0.2 mg a.i./L.
[6] abbreviates: Acibenzolar Bion WG50 6.7 mg a.i./L.
Setting [7] is: Acibenzolar Bion WG50 20 mg a.i./L.
Where [8] appears, read: Acibenzolar Bion WG50 10 g a.i./ha.
Where [9] appears, read: Acibenzolar Bion WG50 60 g a.i./ha.
[10] abbreviates: Azoxystrobin Quadris SC250 0.2 mg a.i./L.
The mark [11] stands for this setting: Azoxystrobin Quadris SC250 0.7 mg a.i./L.
The mark [12] stands for this setting: Azoxystrobin Quadris SC250 50 g a.i./ha.
Where [13] appears, read: Azoxystrobin Quadris SC250 100 g a.i./ha.
Where [14] appears, read: Boscalid Cantus WG50 250 g a.i./ha.
Where [15] appears, read: Boscalid Cantus WG50 500 g a.i./ha.
[16] abbreviates: Chlorothalonil Bravo SC500 83.3 g a.i./ha.
Where [17] appears, read: Chlorothalonil Bravo SC500 1500 g a.i./ha.
Where [18] appears, read: Difenoconazole Score EC250 5 g a.i./ha.
Setting [19] is: Difenoconazole Score EC250 15 g a.i./ha.
Setting [20] is: Propiconazole Tilt EC250 0.7 mg a.i./L.

Read-outs that look alike come from different tables or passages of the source.

On to `Fc1ccc([C@]2(Cn3cncn3)O[C@H]2c2ccccc2Cl)cc1` (racemic) [Epoxiconazole, epoxiconazole], for which, in the assay with Phakopsora pachyrhizi [1] (setting [5]), the Activity observed % came out at 19% and the Leaf attack % was 62%.

Turning to `Cn1cc(C(=O)Nc2ccccc2C2CC2C2CC2)c(C(F)F)n1` (racemic) [OPA F-9], the inhibition at 6.6 µg/mL in the assay with Puccinia recondita (OPA F-9 6.6 mg a.i./L) was 81.9%. Also, the inhibition at 0.2 µg/mL with Phakopsora pachyrhizi [2] (OPA F-9 0.2 mg a.i./L) turned out to be 0%. Also, the inhibition at 0.7 µg/mL in the assay on Phakopsora pachyrhizi [2] (OPA F-9 0.7 mg a.i./L) was 0%. Further, the inhibition at 2.2 µg/mL in the assay on Phakopsora pachyrhizi [2] (OPA F-9 2.2 mg a.i./L) worked out at 24%. Also, in the assay on Phakopsora pachyrhizi [2] (OPA F-9 6.7 mg a.i./L), the inhibition at 6.7 µg/mL stood at 74%. For the same compound, in the assay on Phakopsora pachyrhizi [2] (OPA F-9 20 mg a.i./L), the inhibition at 20 µg/mL was 100%.

Turning to `CSC(=O)c1cccc2nnsc12` [Acibenzolar, acibenzolar-S-methyl], the Activity observed % worked out at 0% in the assay with Phakopsora pachyrhizi [1] (setting [6]), 10% in the assay with Phakopsora pachyrhizi [1] (setting [7]), 19% with Phakopsora pachyrhizi [3] (setting [8]) and 31% in the assay on Phakopsora pachyrhizi [3] (setting [9]). The Leaf attack % came out at 74% with Phakopsora pachyrhizi [1] (setting [6]), 62% with Phakopsora pachyrhizi [1] (setting [7]), 50% in the assay with Phakopsora pachyrhizi [3] (setting [8]) and 43% with Phakopsora pachyrhizi [3] (setting [9]).

Consider `CO/C=C(/C(=O)OC)c1ccccc1Oc1cc(Oc2ccccc2C#N)ncn1` [Azoxystrobin, azoxystrobin], for which the Activity observed % in the assay with Phakopsora pachyrhizi [1] (setting [10]) is listed as 15%; in the assay on Phakopsora pachyrhizi [1] (setting [11]), 60%; in the assay with Phakopsora pachyrhizi [3] (setting [12]), 0%; in the assay on Phakopsora pachyrhizi [3] (setting [13]), 29%. Moreover, the Leaf attack % in the assay with Phakopsora pachyrhizi [1] (setting [10]) was determined as 68%; with Phakopsora pachyrhizi [1] (setting [11]), 32%; with Phakopsora pachyrhizi [3] (setting [12]) it was 62%; with Phakopsora pachyrhizi [3] (setting [13]), 44%.

Consider `O=C(Nc1ccccc1-c1ccc(Cl)cc1)c1cccnc1Cl` [Boscalid, boscalid], for which, in the assay on Phakopsora pachyrhizi [3] (setting [14]), the Activity observed % is recorded as 7% and the Leaf attack % was 58%. Besides, in the assay with Phakopsora pachyrhizi [3] (setting [15]), the Activity observed % is on record as 19% and the Leaf attack % was found to be 50%.

Regarding `N#Cc1c(Cl)c(Cl)c(Cl)c(C#N)c1Cl` [Chlorothalonil, chlorothalonil], in the assay on Phakopsora pachyrhizi [4] (setting [16]), the Activity observed % is 0% and the Leaf attack % worked out at 80%. In addition, in the assay on Phakopsora pachyrhizi [4] (setting [17]), the Activity observed % came out at 17% and the Leaf attack % is 50%.

Turning to `CC1COC(Cn2cncn2)(c2ccc(Oc3ccc(Cl)cc3)cc2Cl)O1` (centres unmarked) [Difenoconazole, difenaconazole], in the assay with Phakopsora pachyrhizi [4] (setting [18]), the Activity observed % was determined as 0% and the Leaf attack % was 50%. Also, in the assay on Phakopsora pachyrhizi [4] (setting [19]), the Activity observed % was found to be 0% and the Leaf attack % was 50%.

Take `Cn1cc(C(=O)Nc2ccccc2-c2ccc(C#CC(C)(C)C)cc2)c(C(F)F)n1` [OPA F-10]: the inhibition at 2.2 µg/mL in the assay with Puccinia recondita (OPA F-10 2.2 mg a.i./L) was 0%. Besides, the inhibition at 6.6 µg/mL in the assay with Puccinia recondita (OPA F-10 6.6 mg a.i./L) is 0%.

In the case of `CCCC1COC(Cn2cncn2)(c2ccc(Cl)cc2Cl)O1` (centres unmarked) [Propiconazole, propiconazole], in the assay with Phakopsora pachyrhizi [1] (setting [20]), the Activity observed % is on record as 4% and the Leaf attack % came out at 74%.

mancozeb: in the assay on Phakopsora pachyrhizi [4] (Mancozeb WP80 750 g a.i./ha), the Activity observed % is 47% and the Leaf attack % was 32%. Besides, in the assay with Phakopsora pachyrhizi [4] (Mancozeb WP80 1500 g a.i./ha), the Activity observed % stood at 37% and the Leaf attack % is recorded as 38%.
